Series [1] deals with T1, mouse Pgp (Abcb1a, MDR3) (Mus musculus, UniProt P21447).
Series [2] addresses T1, mouse Pgp (Abcb1a, MDR3). In words: biochemical.
The target in series [3] is T1, mouse Pgp (Abcb1a, MDR3). This is another data set of the same source.
The target of series [4] is T1, mouse Pgp (Abcb1a, MDR3). The source holds these as a separate data set.
Series [5] has as its system Pgp. As to conditions: rats ref 32; cited from earlier work.
Series [6] has as its target T1, mouse Pgp (Abcb1a, MDR3). Briefly: biochemical. The source holds these as a separate data set.
Series [7] relates to Pgp. As to conditions: humans ref 32; cited from earlier work.
Series [8] concerns the target T1, mouse Pgp (Abcb1a, MDR3). As to conditions: for KSV of acrylamide quenching of Pgp (slope of Stern-Volmer plot): 1 μM Pgp.
Series [9] relates to Pgp. As to conditions: Caco-2 cells, cited from earlier work.
The subject of series [10] is Pgp. As to conditions: cited from earlier work.
The test system of series [11] is human and mouse Pgp. As to conditions: study of CNS drugs ref 96; cited from earlier work.
Series [12] has as its target T1, mouse Pgp (Abcb1a, MDR3). In words: in vitro. As to conditions: pH 7.4.

Structures are written as SMILES. Where two headings read alike, the source gives them in different places.

T1 sequence (P21447 whole entry): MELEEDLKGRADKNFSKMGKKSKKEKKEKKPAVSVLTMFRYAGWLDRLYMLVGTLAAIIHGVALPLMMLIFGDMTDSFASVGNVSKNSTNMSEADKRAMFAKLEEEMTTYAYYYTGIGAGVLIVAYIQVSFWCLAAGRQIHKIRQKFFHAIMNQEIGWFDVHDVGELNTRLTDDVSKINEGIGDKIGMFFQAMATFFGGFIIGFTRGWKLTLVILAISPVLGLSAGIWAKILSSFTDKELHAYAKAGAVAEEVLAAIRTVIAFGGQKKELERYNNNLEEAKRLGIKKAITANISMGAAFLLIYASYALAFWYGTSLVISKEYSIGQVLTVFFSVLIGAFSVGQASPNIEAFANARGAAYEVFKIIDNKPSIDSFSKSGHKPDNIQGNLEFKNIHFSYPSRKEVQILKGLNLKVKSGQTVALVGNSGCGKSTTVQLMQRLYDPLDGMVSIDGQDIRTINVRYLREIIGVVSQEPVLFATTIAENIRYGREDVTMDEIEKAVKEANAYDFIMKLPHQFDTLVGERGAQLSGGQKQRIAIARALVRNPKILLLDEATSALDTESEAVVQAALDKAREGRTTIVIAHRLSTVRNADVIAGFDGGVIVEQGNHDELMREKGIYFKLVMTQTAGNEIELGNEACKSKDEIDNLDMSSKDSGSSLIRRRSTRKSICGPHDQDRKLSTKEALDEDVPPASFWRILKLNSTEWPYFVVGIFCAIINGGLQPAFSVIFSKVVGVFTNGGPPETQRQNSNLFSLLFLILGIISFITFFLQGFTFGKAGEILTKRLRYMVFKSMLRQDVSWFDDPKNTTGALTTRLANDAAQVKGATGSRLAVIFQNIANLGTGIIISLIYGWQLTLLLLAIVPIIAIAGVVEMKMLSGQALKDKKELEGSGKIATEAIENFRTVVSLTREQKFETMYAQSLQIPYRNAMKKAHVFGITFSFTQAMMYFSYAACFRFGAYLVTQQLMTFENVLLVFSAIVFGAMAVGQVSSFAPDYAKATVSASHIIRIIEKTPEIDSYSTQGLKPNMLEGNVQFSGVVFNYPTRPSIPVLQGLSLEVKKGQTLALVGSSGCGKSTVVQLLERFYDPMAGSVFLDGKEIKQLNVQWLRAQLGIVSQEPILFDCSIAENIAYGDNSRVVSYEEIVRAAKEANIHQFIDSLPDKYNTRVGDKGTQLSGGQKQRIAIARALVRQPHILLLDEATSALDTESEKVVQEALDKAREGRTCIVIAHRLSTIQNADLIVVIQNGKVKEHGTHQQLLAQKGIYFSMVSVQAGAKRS

As usually defined, the Kd is the free concentration of one partner at which half of the binding sites on the other are occupied at equilibrium, for simple one-to-one binding. Turning to `CCC(=O)C(CC(C)N(C)C)(c1ccccc1)c1ccccc1` (stereo not shown) [methadone], the “Average STDD amplification factor” value in series [1] was ~ 10. The compound also gave a Kd in series [2] of 72.7 ± 11.7 µM. For the same compound, in series [3], the “Increase of KD at low loperamide concentration” value is given as ~ 5 fold and the “KSV (Stern-Volmer constant) of drug-induced Pgp fluorescence quenching” value worked out at 0.0137 ± 0.0022 µM⁻¹. The “ATPase activity at saturating drug” value in series [4] is reported as “around 800 nmol min^−1 mg^−1”.
What is called Ki is a measure of affinity in units of concentration, obtained from inhibition or displacement. A high value points to lower affinity. Broadly, the Km is the concentration of substrate that gives half-maximal velocity. As to `CN(C)C(=O)C(CCN1CCC(O)(c2ccc(Cl)cc2)CC1)(c1ccccc1)c1ccccc1` [loperamide], the “Levels of loperamide in the presence of cyclosporine A (CsA)” value in series [5] and in series [7] was “elevated levels” in each case. The affinity in series [6] corresponds to a Ki of 108 ± 27 µM. Further, the “Average STDD amplification factor” value in series [1] (1 mM drug, 1 μM Pgp in liposomes) is given as ~ 30. Besides, in [1] (aromatic protons labeled 9–13, 1 mM drug, 1 μM Pgp), the “STDD amplification factor of aromatic protons” value is reported as ~ 30. In [8] (500 μM versus 7.8 μM drug), the “Increase of acrylamide-quenching KSV” value was “about 1.4 M^−1”. In addition, the results for the “KSV of acrylamide quenching of Pgp (slope of Stern-Volmer plot)” value in series [8] (in the presence of 7.8 μM drug) and in series [8] (in the presence of saturating 500 μM drug) were 0.851 ± 0.002 M⁻¹ and 2.25 ± 0.17 M⁻¹, respectively. In [9] (100 μM ref 89), the “Transport at 100 μM” value was “inhibited”. Moreover, in series [9] (in vitro ref 89), the “Concentration at which transport was highest” value is 5 µM. For the same compound, in series [10], the “Level in brain, Pgp-knockout mice versus wild-type” value is on record as over 10 fold. In series [11], the “Difference of efflux ratios between human and mouse Pgp” value is reported as “less than 2 fold”. In series [3] (data not shown), the “Quenching of intrinsic Pgp fluorescence by the drug” value is reported as “did not quench”. In addition, in series [12], the Km stood at 1.6 ± 0.4 µM. Also, the “Shape of drug-induced ATPase activation kinetics” value in [4] is listed as “biphasic”. Moreover, the “ATPase activity, apparent maximum” value in series [4] (at 7.8 μM drug) was “around 800 nmol min^−1 mg^−1”. In addition, the “ATPase activity at saturating drug” value in series [4] (at saturating (500 μM) drug) is listed as ~ 400 nmol min^−1 mg^−1.
Take `C[C@H]1O[C@@H](O[C@H]2[C@@H](O)C[C@H](O[C@H]3[C@@H](O)C[C@H](O[C@H]4CC[C@@]5(C)[C@H](CC[C@@H]6[C@@H]5C[C@@H](O)[C@]5(C)[C@@H](C7=CC(=O)OC7)CC[C@]65O)C4)O[C@@H]3C)O[C@@H]2C)C[C@H](O)[C@@H]1O` [digoxin]: in series [2], the Kd is 32 ± 13.4 µM. In addition, the “KSV,L (Stern-Volmer constant, low concentration phase)” value in [3] (in the presence of 500 μM loperamide, biphasic, fit to Eq. 5, dynamic quenching) stood at 4.59 ± 2.10 µM⁻¹. Moreover, the “KSV,H (Stern-Volmer constant, high concentration phase)” value in series [3] (in the presence of 500 μM loperamide, biphasic, fit to Eq. 5, static quenching) amounted to 0.0241 ± 0.0108 µM⁻¹.

(Values after publication PMC6317893 (Journal of pharmaceutical sciences, 2018).)
